Assays:
Format in all cases: functional
[1] = test system: K562; assay: Induction of cell cycle arrest in human K562 cells at S phase at 0.5 uM incubated for 3 days by RNase/PI staining based flow cytometry (reference value: 16 %); conditions: time 3 day
[2] = test system: Panel NCI-60 (60 carcinoma cell lines); assay: Antiproliferative activity against human panel NCI-60 (60 carcinoma cell lines) assessed as mean cell growth at 10 umol/L incubated for 48 hrs by SRB assay relative to control; conditions: dose 10 µmol/L, at 10 µM
[3] = test system: SR; assay: Anticancer activity against human SR cells assessed as cell growth at 10 umol/L incubated for 48 hrs by SRB assay relative to control; conditions: dose 10 µmol/L, read-out: Activity
[4] = test system: A498; assay: Anticancer activity against human A498 cells assessed as cell growth at 10 umol/L incubated for 48 hrs by SRB assay relative to control; conditions: A498, 48 h, dose 10 µmol/L, read-out: Activity
[5] = test system: U-251; assay: Anticancer activity against human U-251 cells assessed as cell growth at 10 umol/L incubated for 48 hrs by SRB assay relative to control; conditions: U-251, 48 h, dose 10 µmol/L, read-out: Activity
[6] = test system: K562; assay: Anticancer activity against human K562 cells assessed as cell growth at 10 umol/L incubated for 48 hrs by SRB assay relative to control; conditions: K562, 48 h, dose 10 µmol/L, read-out: Activity
[7] = test system: HOP-92; assay: Anticancer activity against human HOP-92 cells assessed as cell growth at 10 umol/L incubated for 48 hrs by SRB assay relative to control; conditions: HOP-92, 48 h, dose 10 µmol/L, read-out: Activity
[8] = test system: RXF 393; assay: Anticancer activity against human RXF 393 cells assessed as cell growth at 10 umol/L incubated for 48 hrs by SRB assay relative to control; conditions: RXF 393, 48 h, dose 10 µmol/L, read-out: Activity
[9] = test system: UACC-62; assay: Anticancer activity against human UACC-62 cells assessed as cell growth at 10 umol/L incubated for 48 hrs by SRB assay relative to control; conditions: UACC-62, 48 h, dose 10 µmol/L, read-out: Activity
[10] = test system: HOP-62; assay: Anticancer activity against human HOP-62 cells assessed as cell growth at 10 umol/L incubated for 48 hrs by SRB assay relative to control; conditions: HOP-62, 48 h, dose 10 µmol/L, read-out: Activity
[11] = test system: NCI-H23; assay: Anticancer activity against human NCI-H23 cells assessed as cell growth at 10 umol/L incubated for 48 hrs by SRB assay relative to control; conditions: NCI-H23, 48 h, dose 10 µmol/L, read-out: Activity
[12] = test system: SK-MEL-2; assay: Anticancer activity against human SK-MEL-2 cells assessed as cell growth at 10 umol/L incubated for 48 hrs by SRB assay relative to control; conditions: SK-MEL-2, 48 h, dose 10 µmol/L, read-out: Activity
[13] = test system: OVCAR-4; assay: Anticancer activity against human OVCAR-4 cells assessed as cell growth at 10 umol/L incubated for 48 hrs by SRB assay relative to control; conditions: OVCAR-4, 48 h, dose 10 µmol/L, read-out: Activity
[14] = test system: MDA-MB-435; assay: Anticancer activity against human MDA-MB-435 cells assessed as cell growth at 10 umol/L incubated for 48 hrs by SRB assay relative to control; conditions: MDA-MB-435, 48 h, dose 10 µmol/L, read-out: Activity
[15] = test system: CAKI-1; assay: Anticancer activity against human CAKI-1 cells assessed as cell growth at 10 umol/L incubated for 48 hrs by SRB assay relative to control; conditions: CAKI-1, 48 h, dose 10 µmol/L, read-out: Activity
[16] = test system: OVCAR-5; assay: Anticancer activity against human OVCAR-5 cells assessed as cell growth at 10 umol/L incubated for 48 hrs by SRB assay relative to control; conditions: OVCAR-5, 48 h, dose 10 µmol/L, read-out: Activity
[17] = test system: SW-620; assay: Anticancer activity against human SW620 cells assessed as cell growth at 10 umol/L incubated for 48 hrs by SRB assay relative to control; conditions: SW-620, 48 h, dose 10 µmol/L, read-out: Activity
[18] = test system: UACC-257; assay: Anticancer activity against human UACC-257 cells assessed as cell growth at 10 umol/L incubated for 48 hrs by SRB assay relative to control; conditions: UACC-257, 48 h, dose 10 µmol/L, read-out: Activity
[19] = test system: COLO 205; assay: Anticancer activity against human COLO 205 cells assessed as cell growth at 10 umol/L incubated for 48 hrs by SRB assay relative to control; conditions: COLO 205, 48 h, dose 10 µmol/L, read-out: Activity
[20] = test system: SNB-19; assay: Anticancer activity against human SNB-19 cells assessed as cell growth at 10 umol/L incubated for 48 hrs by SRB assay relative to control; conditions: SNB-19, 48 h, dose 10 µmol/L, read-out: Activity
[21] = test system: HCT-116; assay: Anticancer activity against human HCT-116 cells assessed as cell growth at 10 umol/L incubated for 48 hrs by SRB assay relative to control; conditions: HCT-116, 48 h, dose 10 µmol/L, read-out: Activity
[22] = test system: UO-31; assay: Anticancer activity against human UO-31 cells assessed as cell growth at 10 umol/L incubated for 48 hrs by SRB assay relative to control; conditions: UO-31, 48 h, dose 10 µmol/L, read-out: Activity
[23] = test system: NCI-H226; assay: Anticancer activity against human NCI-H226 cells assessed as cell growth at 10 umol/L incubated for 48 hrs by SRB assay relative to control; conditions: NCI-H226, 48 h, dose 10 µmol/L, read-out: Activity
[24] = test system: MDA-MB-231; assay: Anticancer activity against human MDA-MB-231 cells assessed as cell growth at 10 umol/L incubated for 48 hrs by SRB assay relative to control; conditions: MDA-MB-231, 48 h, dose 10 µmol/L, read-out: Activity
[25] = test system: BT-549; assay: Anticancer activity against human BT-549 cells assessed as cell growth at 10 umol/L incubated for 48 hrs by SRB assay relative to control; conditions: BT-549, 48 h, dose 10 µmol/L, read-out: Activity
[26] = test system: SF-539; assay: Anticancer activity against human SF-539 cells assessed as cell growth at 10 umol/L incubated for 48 hrs by SRB assay relative to control; conditions: SF-539, 48 h, dose 10 µmol/L, read-out: Activity
[27] = test system: K562; assay: Induction of cell cycle arrest in human K562 cells at G2/M phase at 0.5 uM incubated for 3 days by RNase/PI staining based flow cytometry (reference value: 31 %); conditions: time 3 day
[28] = test system: NCI/ADR-RES; assay: Anticancer activity against human NCI-ADR-RES cells assessed as cell growth at 10 umol/L incubated for 48 hrs by SRB assay relative to control; conditions: dose 10 µmol/L, read-out: Activity
[29] = test system: TK-10; assay: Anticancer activity against human TK-10 cells assessed as cell growth at 10 umol/L incubated for 48 hrs by SRB assay relative to control; conditions: TK-10, 48 h, dose 10 µmol/L, read-out: Activity
[30] = test system: EKVX; assay: Anticancer activity against human EKVX cells assessed as cell growth at 10 umol/L incubated for 48 hrs by SRB assay relative to control; conditions: dose 10 µmol/L, read-out: Activity

| SMILES | Activity [1] [%] | Activity [2] [%] | growth at 10 µM [3] [%] | growth at 10 µM [4] [%] | growth at 10 µM [5] [%] | growth at 10 µM [6] [%] | growth at 10 µM [7] [%] | growth at 10 µM [8] [%] | growth at 10 µM [9] [%] | growth at 10 µM [10] [%] | growth at 10 µM [11] [%] | growth at 10 µM [12] [%] | growth at 10 µM [13] [%] | growth at 10 µM [14] [%] | growth at 10 µM [15] [%] | growth at 10 µM [16] [%] | growth at 10 µM [17] [%] | growth at 10 µM [18] [%] | growth at 10 µM [19] [%] | growth at 10 µM [20] [%] | other results |
| --- | --- | --- | --- | --- | --- | --- | --- | --- | --- | --- | --- | --- | --- | --- | --- | --- | --- | --- | --- | --- | --- |
| CCN1C(=O)N(CC)C2C1NN=c1s/c(=C\c3ccc(Cl)cc3Cl)c(=O)n12 (stereo not given) | 14 | 18.2 | 12.3 | 16.9 | 11 | 83.7 | 50.9 | 61.1 | 28.9 | 33.5 | 28.4 | -20.8 | 46.1 | -24.8 | 21.1 | 28.2 | 20.5 | 68.6 | -7.9 | 27.9 | growth at 10 µM [21]: 9.7%; growth at 10 µM [22]: 35.9%; growth at 10 µM [23]: 48.8%; growth at 10 µM [24]: 12.4%; growth at 10 µM [25]: 15.9%; growth at 10 µM [26]: 12.8%; Activity [27]: 65%; growth at 10 µM [28]: 5.7%; growth at 10 µM [29]: 67.7%; growth at 10 µM [30]: 50.1% |
| COc1cc2c(c(OC)c1OC)-c1ccc(OC)c(=O)cc1[C@@H](NC(C)=O)CC2 [COLCHICINE] | 19 | 8.4 | 5.4 | 15.5 | 19 | -25.7 | 2.4 | 15.3 | 19.1 | 20 | 12.6 | -32 | 56.4 | -50.8 | 20.3 | 31.2 | 26.4 | 24.9 | -47.6 | 19 | growth at 10 µM [21]: 0.2%; growth at 10 µM [22]: 21.2%; growth at 10 µM [23]: 31%; growth at 10 µM [24]: 11.7%; growth at 10 µM [25]: 55.1%; growth at 10 µM [26]: 7.9%; Activity [27]: 56%; growth at 10 µM [28]: -20.9%; growth at 10 µM [29]: 52.7%; growth at 10 µM [30]: 35.8% |

— ChEMBL document CHEMBL5385976, “Recognition of arylmethylidene derivatives of imidazothiazolotriazinones as novel tubulin polymerization inhibitors” (RSC Med Chem, 2024)
